Where two headings read alike, the source gives them in different places.
Legend:
Caki-1 cells = test: Apoptosis by caspase 3/7 luminescent assay and western blot in Caki-1 cells; assay type: cell-based, human; conditions: 24 hours of drug exposure, 8, 16, and 32 μM
Protocol: 10,000-15,000 cells/well are seeded in 96 white wall well plates in 100 microliter medium/per well for 24 h. […] 100 microliters of Caspase-Glo 3/7 assay is added and luminescence is then read. […] 5,000 cells/well are seeded in 96 white wall well plates in 100 microliter medium/per well for 24 h. […] 100 microliters of Caspase-Glo 3/7 assay is added and luminescence is then read.
(§1) Apoptosis was assessed by caspase 3/7 luminescent assay. Cleavage of apoptosis substrates was determined by western blotting. […] Formalin-fixed tumor, liver and kidney sections were stained with H&E and kidney sections were scored semiquantitativey.

ACHN tumors = conditions: equimolar doses i.p. 3 times a week
Protocol: (§2) Tumor size is measured using a formula (length×width^2)/2.
as §1

Renca tumors = conditions: equimolar doses i.p. 3 times a week
Protocol: as §2, §1

mouse kidneys [1] = test: Kidney histopathology in RCC tumor-bearing mice (H&E, semiquantitative score); conditions: i.p. 3 times a week for 4 weeks
Protocol: as §1

[2] = tested on: B-cell lymphoma cell lines Namalwa, Raji, CA46, Ramos, Daudi; test: Growth and viability of B-cell Burkitt's lymphoma cell lines, MTT, 72 h; assay type: cell-based, human; conditions: B-cell lymphoma cell lines, 72 h
Protocol: 5,000 cells/well renal cancer cells and 10,000 cells/well lymphoma cells are seeded in 96 well plates in 100 microliter medium/per well for 24 h. […] Renal cancer cells are fixed with 3.7% paraformaldehyde for 15 minutes and are stained with Crystal violet solution (0.5% in 25% methanol) for 30 minutes. After rinsing with water cell layers are dried and decolorized with Sorenson citrate with shaking for 20 minutes. […] Lymphoma cell growth was evaluated using MTT and cells are incubated for 4 hours.
(§3) Induction of apoptosis was assessed using a caspase 3/7 luminescent assay. Cleavage of apoptosis substrates and inhibition of c-myc was determined by western blotting, with images quantified by ImageJ after normalization with GAPDH. […] Formalin-fixed tumor and kidney sections were stained with hematoxylin and esosin and kidney sections scored using a semiquantitative scale designed to assess AKI-associated tubular injury (tubular epithelial cell loss, necrosis, tubular epithelial simplification, intratubular debris, and casts).

[3] = tested on: Namalwa and Raji cell lines; test: Apoptosis by caspase 3/7 luminescent assay and western blot in BL cell lines; assay type: cell-based, human; conditions: 24 hours of drug exposure; 8, 16, 32 μM
Protocol: Namalwa cells are cultured in RPMI 1640, 10% fetal bovine serum, 1% PenStrep, and placed in a humidified atmosphere containing 5% CO2 at 37° C. 10,000-15,000 cells/well are seeded in 96 white wall well plates in 100 microliter medium/per well for 24 h. […] 100 microliters of Caspase-Glo 3/7 assay is added and luminescence is then read. Caki-1 cells are cultured in RPMI 1640, 10% fetal bovine serum, 1% PenStrep, and placed in a humidified atmosphere containing 5% CO2 at 37° C. 5,000 cells/well are seeded in 96 white wall well plates in 100 microliter medium/per well for 24 h. […] 100 microliters of Caspase-Glo 3/7 assay is added and luminescence is then read.

[4] = tested on: Namalwa cell line-derived xenografts; test: NIR-dye-cisplatin uptake in Namalwa xenografts vs organs (NIRF microscopy, IVIS); conditions: in vivo
Excerpt: FIG. 28 depicts in accordance with various embodiments of the invention, B-cell lymphoma cell line (Namalwa) subcutaneus tumor xenografts in NCR-NU mice were extracted after the mice were sacrificed. NIR-dye-cisplatin uptake in tumors were imaged by a near-infrared fluorescence (NIRF) microscopy and IVIS Lumina XR Imaging System.

Namalwa tumors = test: Namalwa xenograft growth in mice; assay type: in vivo, mouse; conditions: equimolar doses i.p. 3 times a week
mouse kidneys [5] = test: Kidney histopathology, AKI-associated tubular injury score, Namalwa-bearing mice; conditions: i.p. 3 times a week for 4 weeks
Protocol: FIG. 27 depicts in accordance with various embodiments of the invention, formalin-fixed kidney sections are stained with hematoxylin and esosin and scored using a semiquantitative scale designed to assess AKI-associated tubular injury (tubular epithelial cell loss, necrosis, tubular epithelial simplification, intratubular debris, and casts).
as §3

[6] = tested on: ex vivo expanded CTCs from PC patients and LNCaP and C4-2B cells from mouse bone marrow, 3-D spheroids; test: Viability/apoptosis of PC CTCs and bone marrow-derived LNCaP and C4-2B grown as 3-D spheroids; assay type: cell-based, human
Protocol: Immortalized PC cell lines (PC3, LNCaP, C4-2, C4-2B, 22Rv1) and 3-D spheroid growth of mouse bone marrow-derived LNCaP and C4-2B and ex vivo expanded CTCs from patients were used. […] Induction of apoptosis was assessed by caspase 3/7 luminescent assay. Growth inhibitory effects were compared between 2-D and 3-D. Senescent luciferase-tagged LNCaP and C4-2B cells from mouse bone marrow regained growth potential when propagated in vitro as 3D spheroids. RPMI medium supplemented with 10% FBS and 1% penicillin/streptomycin was used to grow CTCs in vitro.

[7] = tested on: ovarian tumor cells OV90 and OVCA433; conditions: in vitro

Compound: CC1(C)C(/C=C/C2=C(Cl)C(=C/C=C3/N(CCCCCC(=O)[O][Pt]([NH2])([NH2])([OH])([Cl])[Cl])c4ccccc4C3(C)C)/CCC2)=[N+](CCCCS(=O)(=O)[O-])c2ccccc21 [NIR dye-cisplatin, DZ-1-cisplatin]
- induction of apoptosis (caspase 3/7, apoptosis related markers) (Caki-1 cells): induced apoptosis
- induction of apoptosis (caspase 3/7, apoptosis related markers) (Caki-1 cells; listed as dye-cisplatin): induces apoptosis
- tumor growth inhibition (ACHN tumors): tumor growth inhibition and apoptotic nuclear lobulation/fragmentation
- tumor growth inhibition (ACHN tumors; listed as dye-cisplatin): more effective than cisplatin
- tumor growth inhibition (Renca tumors): tumor growth inhibition and apoptotic nuclear lobulation/fragmentation
- tumor growth inhibition (Renca tumors; listed as dye-cisplatin): more effective than cisplatin
- kidney toxicity (histopathology) (mouse kidneys [1]): preserved the integrity and normal morphology of mouse kidneys
- antitumor effect (in words) [2]: even more potent antitumor effect
- induction of apoptosis (caspase 3/7; caspase 9, caspase 3 and PARP) [3]: induces apoptosis
- accumulation in cell line-derived xenografts relative to mouse kidneys and lungs [4]: 7-15 times
- tumor growth inhibition (Namalwa tumors): more effective than cisplatin
- kidney toxicity (histopathology) (mouse kidneys [5]): preserves the integrity and normal morphology of mouse kidneys
- sensitivity of cells grown as 3-D spheroids [6]: extremely sensitive
- sensitivity of cell growth relative to unconjugated drug [7]: more sensitive

From patent US20190269801A1 (CEDARS-SINAI MEDICAL CENTER, priority 2016, published 2019)
